US12435072B2, “Compounds” (Vicore Pharma AB, priority 2019, dated 2025)

Key:
CYP2C19 = target: T1, CYP2C19 (Homo sapiens, UniProt P33261); assay: CYP inhibition in human liver microsomes, CYP2C19; format: in vitro ADME; settings: substrate omeprazole; for inhibition at 10 µM: probe omeprazole, read-out: CYP2C19 Inh %
T1 construct: incubated with human liver microsomes; tissue Eurofins ITEMG232; host or cells: human liver microsomes
Procedure: (§1) The following substrates were used: CYP1A phenacetin, CYP2B6 bupropion, CYP2C8 paclitaxel and amodiaquine, CYP2C9 diclofenac, CYP2C19 omeprazole, CYP2D6 dextromethorphan, CYP3A midazolam and testosterone. At the end of the incubation, the formation of metabolite was monitored by HPLC-MS/MS as the peak area response.

CYP2C9 [1] = target: T2, CYP2C9 (Homo sapiens, UniProt P11712); assay: CYP inhibition found during development of C21, CYP 2C9; format: in vitro ADME; settings: statement in background
T2 sequence (P11712 whole entry): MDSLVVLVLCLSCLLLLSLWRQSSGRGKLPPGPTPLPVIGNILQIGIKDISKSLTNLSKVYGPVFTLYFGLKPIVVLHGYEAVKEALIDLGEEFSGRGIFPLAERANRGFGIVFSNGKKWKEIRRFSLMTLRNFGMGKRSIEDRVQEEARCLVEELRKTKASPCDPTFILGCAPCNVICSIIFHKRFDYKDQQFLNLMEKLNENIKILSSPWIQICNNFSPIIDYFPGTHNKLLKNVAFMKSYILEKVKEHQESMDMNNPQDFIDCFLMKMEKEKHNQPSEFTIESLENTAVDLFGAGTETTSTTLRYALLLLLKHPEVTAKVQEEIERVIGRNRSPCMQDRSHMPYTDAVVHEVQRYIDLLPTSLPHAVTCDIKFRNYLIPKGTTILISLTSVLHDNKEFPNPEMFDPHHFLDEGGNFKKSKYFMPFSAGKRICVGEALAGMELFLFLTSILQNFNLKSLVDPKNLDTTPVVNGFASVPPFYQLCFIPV

CYP3A4 [2] = target: T3, CYP3A4 (Homo sapiens, UniProt P08684); assay: CYP inhibition found during development of C21, CYP 3A4; format: in vitro ADME; settings: statement in background
T3 sequence (P08684 whole entry): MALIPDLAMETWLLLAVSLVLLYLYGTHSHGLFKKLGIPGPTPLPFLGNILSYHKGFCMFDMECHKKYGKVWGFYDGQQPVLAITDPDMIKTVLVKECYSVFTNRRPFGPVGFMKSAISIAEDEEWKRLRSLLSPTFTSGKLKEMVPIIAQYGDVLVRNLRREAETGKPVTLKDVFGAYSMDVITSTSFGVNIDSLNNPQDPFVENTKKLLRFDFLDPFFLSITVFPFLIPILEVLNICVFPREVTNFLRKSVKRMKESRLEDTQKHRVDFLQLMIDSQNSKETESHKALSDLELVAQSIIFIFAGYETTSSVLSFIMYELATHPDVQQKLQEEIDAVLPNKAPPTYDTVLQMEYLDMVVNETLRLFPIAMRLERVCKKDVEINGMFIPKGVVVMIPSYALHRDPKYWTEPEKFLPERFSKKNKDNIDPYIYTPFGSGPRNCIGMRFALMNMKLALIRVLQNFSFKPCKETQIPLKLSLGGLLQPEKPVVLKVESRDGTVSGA

[3] = Metabolic hydrolysis found during development of C21; format: in vitro ADME; settings: statement in background
CYP2C9 [4] = target: T2, CYP2C9; assay: CYP inhibition in human liver microsomes, CYP2C9; format: in vitro ADME; design: incubated with human liver microsomes; tissue Eurofins ITEMG232; host or cells: human liver microsomes; settings: substrate diclofenac; for inhibition at 10 µM: probe diclofenac, read-out: CYP2C9 Inh %
Procedure: as §1

[5] = target: T4, human recombinant AT2 receptor (Homo sapiens, UniProt P50052); assay: Binding to AT2 receptor, radiometric scintillation assay (Eurofins); settings: ligand 125I CGP 42112A, tested at 1, 10, 100 and 1000 nM
T4 construct: purchased Eurofins ITEM26
T4 sequence (P50052 1-363): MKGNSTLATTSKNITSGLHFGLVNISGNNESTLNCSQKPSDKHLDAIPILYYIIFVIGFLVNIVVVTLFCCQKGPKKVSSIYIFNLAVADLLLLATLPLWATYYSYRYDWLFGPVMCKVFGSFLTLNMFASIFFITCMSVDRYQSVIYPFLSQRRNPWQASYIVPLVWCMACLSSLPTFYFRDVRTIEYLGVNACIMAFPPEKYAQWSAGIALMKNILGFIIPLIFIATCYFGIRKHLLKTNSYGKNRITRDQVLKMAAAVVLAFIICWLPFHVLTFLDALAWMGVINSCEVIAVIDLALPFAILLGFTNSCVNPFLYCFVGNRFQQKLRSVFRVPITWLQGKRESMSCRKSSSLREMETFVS
Procedure: (§2) Compounds were evaluated for binding to the human recombinant AT2 and AT1 receptor according to Eurofins protocol ITEM26 and ITEM24 using a radiometric scintillation assay.

[6] = target: T5, human recombinant AT1 receptor (Homo sapiens, UniProt P30556); assay: Binding to AT1 receptor, radiometric scintillation assay (Eurofins); settings: ligand 125I(sar1,Ile8)-AT-II, tested at 1 and 10 μM
T5 construct: purchased Eurofins ITEM24
T5 sequence (P30556 1-359): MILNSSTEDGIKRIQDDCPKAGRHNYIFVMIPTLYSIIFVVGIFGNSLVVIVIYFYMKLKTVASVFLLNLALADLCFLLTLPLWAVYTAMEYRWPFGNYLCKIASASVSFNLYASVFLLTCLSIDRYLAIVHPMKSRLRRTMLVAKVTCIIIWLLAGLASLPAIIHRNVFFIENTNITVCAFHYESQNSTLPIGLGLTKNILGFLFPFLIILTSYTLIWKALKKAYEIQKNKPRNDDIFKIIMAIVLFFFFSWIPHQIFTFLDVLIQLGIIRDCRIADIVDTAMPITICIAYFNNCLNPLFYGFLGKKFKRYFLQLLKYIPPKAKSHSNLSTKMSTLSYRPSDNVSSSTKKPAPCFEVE
Procedure: as §2

CYP1A = target: T6, CYP1A (Homo sapiens, UniProt P05177); assay: CYP inhibition in human liver microsomes, CYP1A; format: in vitro ADME; settings: probe phenacetin, substrate phenacetin, read-out: CYP1A Inh %
T6 construct: incubated with human liver microsomes; tissue Eurofins ITEMG232; host or cells: human liver microsomes
T6 sequence (P05177 1-516): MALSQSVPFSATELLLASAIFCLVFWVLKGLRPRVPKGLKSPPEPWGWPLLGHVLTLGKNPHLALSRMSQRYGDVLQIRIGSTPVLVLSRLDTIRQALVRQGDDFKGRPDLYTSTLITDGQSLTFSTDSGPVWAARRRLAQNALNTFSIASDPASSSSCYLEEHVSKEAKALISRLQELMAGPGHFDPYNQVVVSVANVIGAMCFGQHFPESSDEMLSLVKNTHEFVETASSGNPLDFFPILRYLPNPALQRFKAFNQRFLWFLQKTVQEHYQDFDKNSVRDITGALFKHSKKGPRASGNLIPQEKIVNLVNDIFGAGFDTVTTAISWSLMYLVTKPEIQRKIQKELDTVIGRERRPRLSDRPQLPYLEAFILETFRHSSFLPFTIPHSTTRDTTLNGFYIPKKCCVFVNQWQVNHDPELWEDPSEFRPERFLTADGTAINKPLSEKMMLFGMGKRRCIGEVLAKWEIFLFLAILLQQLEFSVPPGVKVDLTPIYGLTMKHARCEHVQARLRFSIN
Procedure: as §1

CYP2B6 = target: T7, CYP2B6 (Homo sapiens, UniProt P20813); assay: CYP inhibition in human liver microsomes, CYP2B6; format: in vitro ADME; settings: probe bupropion, substrate bupropion, read-out: CYP2B6 Inh %
T7 construct: incubated with human liver microsomes; tissue Eurofins ITEMG232; host or cells: human liver microsomes
T7 sequence (P20813 1-491): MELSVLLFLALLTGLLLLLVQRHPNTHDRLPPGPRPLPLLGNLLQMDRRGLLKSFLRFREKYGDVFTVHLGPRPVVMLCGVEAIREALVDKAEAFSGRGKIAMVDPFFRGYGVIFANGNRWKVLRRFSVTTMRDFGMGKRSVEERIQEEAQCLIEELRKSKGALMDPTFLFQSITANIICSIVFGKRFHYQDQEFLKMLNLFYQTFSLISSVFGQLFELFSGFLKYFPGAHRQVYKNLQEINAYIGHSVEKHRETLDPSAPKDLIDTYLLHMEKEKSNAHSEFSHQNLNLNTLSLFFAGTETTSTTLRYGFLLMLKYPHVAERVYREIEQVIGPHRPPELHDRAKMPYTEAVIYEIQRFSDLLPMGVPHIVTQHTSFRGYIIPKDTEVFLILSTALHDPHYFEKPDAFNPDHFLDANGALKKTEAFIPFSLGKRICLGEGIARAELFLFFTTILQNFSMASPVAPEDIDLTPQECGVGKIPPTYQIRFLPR
Procedure: as §1

CYP2C8 = target: T8, CYP2C8 (Homo sapiens, UniProt P10632); assay: CYP inhibition in human liver microsomes, CYP2C8; format: in vitro ADME; settings: probe paclitaxel and amodiaquine, substrate paclitaxel and amodiaquine, read-out: CYP2C8 Inh %
T8 construct: incubated with human liver microsomes; tissue Eurofins ITEMG232; host or cells: human liver microsomes
T8 sequence (P10632 1-490): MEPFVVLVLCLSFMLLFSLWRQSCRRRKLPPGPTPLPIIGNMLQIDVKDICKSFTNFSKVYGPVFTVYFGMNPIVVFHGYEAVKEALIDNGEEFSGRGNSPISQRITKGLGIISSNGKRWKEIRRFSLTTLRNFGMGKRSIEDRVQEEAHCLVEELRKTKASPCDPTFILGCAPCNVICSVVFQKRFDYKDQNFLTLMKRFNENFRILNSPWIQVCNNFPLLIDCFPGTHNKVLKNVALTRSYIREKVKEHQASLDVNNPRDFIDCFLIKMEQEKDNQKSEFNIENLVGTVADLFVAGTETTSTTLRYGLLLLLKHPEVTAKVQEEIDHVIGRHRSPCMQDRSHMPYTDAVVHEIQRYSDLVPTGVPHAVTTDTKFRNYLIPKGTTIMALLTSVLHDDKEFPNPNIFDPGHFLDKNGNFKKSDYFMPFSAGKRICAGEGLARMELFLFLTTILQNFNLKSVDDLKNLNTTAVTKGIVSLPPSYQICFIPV
Procedure: as §1

CYP2D6 = target: T9, CYP2D6 (Homo sapiens, UniProt P10635); assay: CYP inhibition in human liver microsomes, CYP2D6; format: in vitro ADME; settings: probe dextromethorphan, substrate dextromethorphan, read-out: CYP2D6 Inh %
T9 construct: incubated with human liver microsomes; tissue Eurofins ITEMG232; host or cells: human liver microsomes
T9 sequence (P10635 whole entry): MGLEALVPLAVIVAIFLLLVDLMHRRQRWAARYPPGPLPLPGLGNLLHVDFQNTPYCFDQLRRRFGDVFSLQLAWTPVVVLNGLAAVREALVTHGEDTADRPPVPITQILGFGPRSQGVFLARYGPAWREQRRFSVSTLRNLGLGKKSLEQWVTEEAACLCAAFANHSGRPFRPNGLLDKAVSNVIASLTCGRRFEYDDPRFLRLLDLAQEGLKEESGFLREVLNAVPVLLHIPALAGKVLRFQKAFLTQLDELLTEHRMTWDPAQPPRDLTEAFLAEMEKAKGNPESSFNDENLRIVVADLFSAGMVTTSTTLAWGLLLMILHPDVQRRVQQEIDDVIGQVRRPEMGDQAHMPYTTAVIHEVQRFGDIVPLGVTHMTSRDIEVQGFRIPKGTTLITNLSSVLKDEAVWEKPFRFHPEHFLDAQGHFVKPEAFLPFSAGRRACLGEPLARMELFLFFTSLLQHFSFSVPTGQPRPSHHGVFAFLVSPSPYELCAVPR
Procedure: as §1

CYP3A4&5 = assay: CYP inhibition in human liver microsomes, CYP3A4&5 (testosterone); format: in vitro ADME; settings: probe testosterone, substrate testosterone, read-out: CYP3A4&5 testosterone Inh %
Procedure: as §1

CYP3A4 [7] = target: T3, CYP3A4; assay: CYP inhibition in human liver microsomes, CYP3A4 (midazolam); format: in vitro ADME; design: incubated with human liver microsomes; tissue Eurofins ITEMG232; host or cells: human liver microsomes; settings: probe midazolam, substrate midazolam, read-out: CYP3A4 midazolam Inh %
Procedure: as §1

T1 sequence (P33261 whole entry): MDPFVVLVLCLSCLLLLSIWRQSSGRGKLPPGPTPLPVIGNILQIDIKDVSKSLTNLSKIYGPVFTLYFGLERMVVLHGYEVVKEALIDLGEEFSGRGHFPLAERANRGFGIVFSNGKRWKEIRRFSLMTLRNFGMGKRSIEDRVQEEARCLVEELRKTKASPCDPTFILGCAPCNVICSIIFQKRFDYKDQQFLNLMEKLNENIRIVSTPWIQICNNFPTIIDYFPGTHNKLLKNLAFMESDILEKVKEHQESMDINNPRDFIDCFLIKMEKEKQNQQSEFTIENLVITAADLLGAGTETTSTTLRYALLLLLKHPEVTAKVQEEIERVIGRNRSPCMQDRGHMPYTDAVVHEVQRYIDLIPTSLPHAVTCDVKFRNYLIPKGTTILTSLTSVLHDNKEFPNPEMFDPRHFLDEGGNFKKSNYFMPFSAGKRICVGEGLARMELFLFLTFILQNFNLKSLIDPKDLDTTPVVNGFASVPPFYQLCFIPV

Structure (SMILES): CCCCOC(=O)NS(=O)(=O)c1sc(CC(C)C)cc1-c1ccc(Cn2ccnc2)cc1 [Example C21, N-butyloxycarbonyl-3-(4-imidazol-1-ylmethylphenyl)-5-isobutylthiophene-2-sulfon-amide]
- CYP2C19 Inh % (CYP2C19; 10 μM): 96.0%
- inhibition of CYP 2C9 (CYP2C9 [1]): potent inhibitor
- inhibition of CYP 3A4 (CYP3A4 [2]): potent inhibitor
- metabolic hydrolysis [3]: rapidly hydrolysed to an inactive sulfonamide metabolite
- CYP2C9 Inh % (CYP2C9 [4]; 10 μM): 99.0%

Structure (SMILES): Cc1nccn1Cc1ccc(-c2cc(CC(C)C)sc2S(=O)(=O)NC(=O)NCCc2c[nH]cn2)cc1F [Example 16, 1-(3-{3-Fluoro-4-[(2-methyl-1H-imidazol-1-yl)methyl]phenyl}-5-isobutyl-2-thienylsulfonyl)-3-[2-(1H-imidazol-4-yl)ethyl]urea]
- IC50 [5]: 0.0074 µM
- IC50 [6]: 57 µM
- inhibition at 10 µM (CYP1A): 23%
- inhibition at 10 µM (CYP2B6): 88%
- inhibition at 10 µM (CYP2C19): 91%
- inhibition at 10 µM (CYP2C8): 65%
- inhibition at 10 µM (CYP2D6): 88%
- inhibition at 10 µM (CYP3A4&5): 58%
- inhibition at 10 µM (CYP2C9 [4]): 79%
- inhibition at 10 µM (CYP3A4 [7]): 91%

Structure (SMILES): Cc1nccn1Cc1ncc(-c2cc(CC(C)C)sc2S(=O)(=O)NC(=O)NCc2ccccn2)cn1 [Example 22, 3-(5-Isobutyl-3-{2-[(2-methyl-1H-imidazol-1-yl)methyl]-5-pyrimidinyl}-2-thienylsulfonyl)-1-[(2-pyridyl)methyl]urea]
- IC50 [5]: 0.0169 µM
- IC50 [6]: 51 µM

Structure (SMILES): CC(C)Cc1cc(-c2ccc(Cn3ccnc3C(C)C)c(F)c2)c(S(=O)(=O)NC(=O)NCCCC(F)(F)F)s1 [Example 42, 1-{[3-(3-fluoro-4-{[2-(propan-2-yl)-1H-imidazol-1-yl]methyl}phenyl)-5-(2-methylpropyl)thiophen-2-yl]sulfonyl}-3-(4,4,4-trifluorobutyl)urea trifluoroacetic acid]
- IC50 [5]: 0.0029 µM
- IC50 [6]: 5 µM

Structure (SMILES): Cc1nccn1Cc1ccc(-c2cc(CC(C)C)sc2S(=O)(=O)NC(=O)NCc2cc(F)cc(F)c2)nc1 [Example 23, 1-[(3,5-Difluorophenyl)methyl]-3-(5-isobutyl-3-{5-[(2-methyl-1H-imidazol-1-yl)methyl]-2-pyridyl}-2-thienylsulfonyl)urea]
- IC50 [5]: 0.357 µM
- IC50 [6]: 16 µM

Structure (SMILES): Cc1nccn1Cc1ccc(-c2cc(CC(C)C)sc2S(=O)(=O)NC(=O)NCCC(F)(F)F)nc1 [Example 19, 3-(5-Isobutyl-3-{5-[(2-methyl-1H-imidazol-1-yl)methyl]-2-pyridyl}-2-thienylsulfonyl)-1-(3,3,3-trifluoropropyl)urea]
- IC50 [5]: 0.127 µM
- IC50 [6]: 83 µM

Structure (SMILES): Cc1cn(Cc2ccc(-c3cc(CC(C)C)sc3S(=O)(=O)NC(=O)NCc3ccccn3)cc2)c(C)n1 [Example 11, 3-(3-{p-[(2,4-Dimethyl-1H-imidazol-1-yl)methyl]phenyl}-5-isobutyl-2-thienylsulfonyl)-1-[(2-pyridyl)methyl]urea]
- IC50 [5]: 0.119 µM
- IC50 [6]: 18 µM
- inhibition at 10 µM (CYP1A): 5%
- inhibition at 10 µM (CYP2B6): 14%
- inhibition at 10 µM (CYP2C19): 53%
- inhibition at 10 µM (CYP2C8): 34%
- inhibition at 10 µM (CYP2D6): 44%
- inhibition at 10 µM (CYP3A4&5): 17%
- inhibition at 10 µM (CYP2C9 [4]): 29%
- inhibition at 10 µM (CYP3A4 [7]): 22%

Structure (SMILES): Cc1nccn1Cc1ccc(-c2cc(CC(C)C)sc2S(=O)(=O)NC(=O)N(C)Cc2ccccn2)cc1F [Example 17, 3-(3-{3-Fluoro-4-[(2-methyl-1H-imidazol-1-yl)methyl]phenyl}-5-isobutyl-2-thienylsulfonyl)-1-methyl-1-[(2-pyridyl)methyl]urea]
- IC50 [5]: 0.0095 µM
- IC50 [6]: 58 µM
- inhibition at 10 µM (CYP1A): 29%
- inhibition at 10 µM (CYP2B6): 20%
- inhibition at 10 µM (CYP2C19): 54%
- inhibition at 10 µM (CYP2C8): 83%
- inhibition at 10 µM (CYP2D6): 22%
- inhibition at 10 µM (CYP3A4&5): 18%
- inhibition at 10 µM (CYP2C9 [4]): 48%
- inhibition at 10 µM (CYP3A4 [7]): 65%

Structure (SMILES): Cc1cn(Cc2ccc(-c3cc(CC(C)C)sc3S(=O)(=O)NC(=O)NCc3ccccc3)cc2)c(C)n1 [Example 10, 1-Benzyl-3-(3-{p-[(2,4-dimethyl-1H-imidazol-1-yl)methyl]phenyl}-5-isobutyl-2-thienylsulfonyl)urea]
- IC50 [5]: 0.0906 µM
- IC50 [6]: 6 µM
- inhibition at 10 µM (CYP1A): -5%
- inhibition at 10 µM (CYP2B6): 15%
- inhibition at 10 µM (CYP2C19): 61%
- inhibition at 10 µM (CYP2C8): 48%
- inhibition at 10 µM (CYP2D6): 31%
- inhibition at 10 µM (CYP3A4&5): 29%
- inhibition at 10 µM (CYP2C9 [4]): 50%
- inhibition at 10 µM (CYP3A4 [7]): 25%
